Test results reported in ChEMBL document CHEMBL1201862, “PubChem BioAssay data set” (2004).
Where “and” joins values, the source holds several entries; their conditions need not be identical. Equal values may be shown once.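 All cell lines were grown in 96-well plates and treated with compound for 48 hours. GI50 marks 50% less growth.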 Calls of active or inactive are those of the source. Cut-off read from the data, not from the text of the source: active = GI50 up to about 1.1 µM and inactive = higher.

Tests used:
Assay in all cases: growth of human tumour cells (NCI), 48 h
RXF 631 = tested on: RXF 631
UACC-62 = tested on: UACC-62
NCI-H460 = tested on: NCI-H460
KM12 = tested on: KM12
SW-620 = tested on: SW-620
SN12C = tested on: SN12C
TK-10 = tested on: TK-10
SK-OV-3 = tested on: SK-OV-3
OVCAR-5 = tested on: OVCAR-5
SK-MEL-28 = tested on: SK-MEL-28
NCI-H522 = tested on: NCI-H522
RXF 393 = tested on: RXF 393
OVCAR-3 = tested on: OVCAR-3
HT-29 = tested on: HT-29
NCI-H23 = tested on: NCI-H23
K562 = tested on: K562
M14 = tested on: M14
DLD-1 = tested on: DLD-1
OVCAR-4 = tested on: OVCAR-4
SR = tested on: SR
UACC-257 = tested on: UACC-257
UO-31 = tested on: UO-31
IGROV-1 = tested on: IGROV-1
CCRF-CEM = tested on: CCRF-CEM
RPMI-8226 = tested on: RPMI-8226
EKVX = tested on: EKVX
SF-539 = tested on: SF-539
DMS-114 = tested on: DMS-114
Malme-3M = tested on: Malme-3M
M19-MEL = tested on: M19-MEL
LXFL 529 = tested on: LXFL 529
SK-MEL-5 = tested on: SK-MEL-5
SNB-75 = tested on: SNB-75
HCC 2998 = tested on: HCC 2998
A498 = tested on: A498
HL-60 = tested on: HL-60
OVCAR-8 = tested on: OVCAR-8
CAKI-1 = tested on: CAKI-1
LOX IMVI = tested on: LOX IMVI
U-251 = tested on: U-251
SNB-19 = tested on: SNB-19
HCT-15 = tested on: HCT-15
SF-268 = tested on: SF-268
KM-20L2 = tested on: KM-20L2
NCI-H226 = tested on: NCI-H226
MOLT-4 = tested on: MOLT-4
A549 = tested on: A549
SK-MEL-2 = tested on: SK-MEL-2
HOP-62 = tested on: HOP-62
DMS-273 = tested on: DMS-273
COLO 205 = tested on: COLO 205
HCT-116 = tested on: HCT-116
HOP-18 = tested on: HOP-18
SF-295 = tested on: SF-295
SNB-78 = tested on: SNB-78
ACHN = tested on: ACHN
HOP-92 = tested on: HOP-92
XF498 = tested on: XF498
NCI/ADR-RES = tested on: NCI/ADR-RES
MDA-N = tested on: MDA-N
Hs-578T = tested on: Hs-578T
MCF7 = tested on: MCF7
PC-3 = tested on: PC-3
786-0 = tested on: 786-0

## NC(S)=Nc1cc(Cl)ccc1Cl
RXF 631
  GI50: > 100 µM (inactive)
UACC-62
  GI50: > 100 µM (inactive)
NCI-H460
  GI50: > 100 µM (inactive)
KM12
  GI50: > 100 µM (inactive)
SW-620
  GI50: > 100 µM (inactive)
SN12C
  GI50: > 100 µM (inactive)
TK-10
  GI50: > 100 µM (inactive)
SK-OV-3
  GI50: > 100 µM (inactive)
OVCAR-5
  GI50: > 100 µM (inactive)
SK-MEL-28
  GI50: > 100 µM (inactive)
NCI-H522
  GI50: > 100 µM (inactive)
RXF 393
  GI50: 94 µM (inactive)
OVCAR-3
  GI50: > 100 µM (inactive)
HT-29
  GI50: > 100 µM (inactive)
NCI-H23
  GI50: > 100 µM (inactive)
K562
  GI50: > 100 µM (inactive)
M14
  GI50: > 100 µM (inactive)
DLD-1
  GI50: > 100 µM (inactive)
OVCAR-4
  GI50: > 100 µM (inactive)
SR
  GI50: > 100 µM (inactive)
UACC-257
  GI50: > 100 µM (inactive)
UO-31
  GI50: > 100 µM (inactive)
IGROV-1
  GI50: > 100 µM (inactive)
CCRF-CEM
  GI50: > 100 µM (inactive)
RPMI-8226
  GI50: > 100 µM (inactive)
EKVX
  GI50: > 100 µM (inactive)
SF-539
  GI50: > 100 µM (inactive)
DMS-114
  GI50: > 100 µM (inactive)
Malme-3M
  GI50: > 100 µM (inactive)
M19-MEL
  GI50: > 100 µM (inactive)
LXFL 529
  GI50: > 100 µM (inactive)
SK-MEL-5
  GI50: > 100 µM (inactive)
SNB-75
  GI50: 55.7 µM (inactive)
HCC 2998
  GI50: > 100 µM (inactive)
A498
  GI50: > 100 µM (inactive)
HL-60
  GI50: > 100 µM (inactive)
OVCAR-8
  GI50: 62.1 µM (inactive)
CAKI-1
  GI50: > 100 µM (inactive)
LOX IMVI
  GI50: > 100 µM (inactive)
U-251
  GI50: > 100 µM (inactive)
SNB-19
  GI50: > 100 µM (inactive)
HCT-15
  GI50: > 100 µM
SF-268
  GI50: > 100 µM (inactive)
KM-20L2
  GI50: > 100 µM (inactive)
NCI-H226
  GI50: > 100 µM (inactive)
MOLT-4
  GI50: > 100 µM (inactive)
A549
  GI50: > 100 µM (inactive)
SK-MEL-2
  GI50: > 100 µM (inactive)
HOP-62
  GI50: > 100 µM (inactive)
DMS-273
  GI50: > 100 µM (inactive)
COLO 205
  GI50: > 100 µM (inactive)
HCT-116
  GI50: > 100 µM (inactive)
HOP-18
  GI50: > 100 µM (inactive)
SF-295
  GI50: > 100 µM (inactive)
SNB-78
  GI50: > 100 µM (inactive)
ACHN
  GI50: > 100 µM (inactive)
HOP-92
  GI50: 85.1 µM (inactive)
XF498
  GI50: 94.6 µM (inactive)

## COc1cccc2c1C(=O)c1c(O)c3c(c(O)c1C2=O)C[C@@](O)(C(C)=O)C[C@@H]3OC1CC(N)C(O)C(C)O1 (some centres not stated)
RXF 631
  GI50: 0.115 µM (active)
NCI-H460
  GI50: < 10 nM (active) and 5.94 nM (active)
SW-620
  GI50: < 16.7 nM (active) and 22.9 nM (active)
OVCAR-5
  GI50: 201 nM (active) and 238 nM (active)
SK-MEL-28
  GI50: 167 nM (active) and 303 nM (active)
NCI/ADR-RES
  GI50: 2.42 µM (inactive) and 4.61 µM (inactive)
DLD-1
  GI50: 0.309 µM (active)
SR
  GI50: 8.39 nM (active) and < 13.5 nM (active)
UO-31
  GI50: 412 nM (active) and 413 nM (active)
CCRF-CEM
  GI50: < 10 nM (active) and 12.8 nM (active)
SF-539
  GI50: 39.1 nM (active) and 48.3 nM (active)
DMS-114
  GI50: 0.0371 µM (active)
Malme-3M
  GI50: 30.3 nM (active) and 54.3 nM (active)
M19-MEL
  GI50: 0.08 µM (active)
LXFL 529
  GI50: 0.0743 µM (active)
MDA-N
  GI50: 168 nM (active) and 98.9 nM (active)
HCC 2998
  GI50: 154 nM (active) and 167 nM (active)
A498
  GI50: 146 nM (active) and 197 nM (active)
HL-60
  GI50: < 11.4 nM (active) and 12.3 nM (active)
CAKI-1
  GI50: 81.8 nM (active) and 99.1 nM (active)
LOX IMVI
  GI50: < 13.1 nM (active) and 24.9 nM (active)
Hs-578T
  GI50: 168 nM (active) and 192 nM (active)
HCT-15
  GI50: 0.721 µM and 0.689 µM
MCF7
  GI50: 0.00889 µM (active)
KM-20L2
  GI50: 0.194 µM (active)
NCI-H226
  GI50: 24 nM (active) and 34.6 nM (active)
MOLT-4
  GI50: < 10 nM (active) and 6.34 nM (active)
DMS-273
  GI50: 0.0889 µM (active)
PC-3
  GI50: 48 nM (active) and 78.9 nM (active)
COLO 205
  GI50: 156 nM (active) and 142 nM (active)
786-0
  GI50: < 17.8 nM (active) and 32.6 nM (active)
HOP-18
  GI50: 0.118 µM (active)
SNB-78
  GI50: 0.292 µM (active)
XF498
  GI50: 0.069 µM (active)
